Data as given in PMC6168621 (Frontiers in Pharmacology, 2018).
“Also recorded” adds a separate entry of the source. Like-named read-outs stand apart in the source and are kept apart here. Marks after values point to notes of the source that are not given here.

Legend:
[1] = LC-MS/MS analysis of forensic clinical samples (urine, serum); format: in vivo; conditions: human forensic clinical sample; for Concentration in serum: Patient 002, serum (text: blood); for Concentration in urine: Patient 002, urine
From the text: For human studies, ToxBox® analytical test kits were provided by PinPoint Testing, LLC (Little Rock, AR, United States) to streamline sample preparation and testing procedures for SCBs, confounding drugs of abuse and other non-specified NPSs. ToxBox® contained NIST-traceable, certified reference material for all standards and isotopically-labeled internal standards along with ISOLUTE® SLE+ 96-well plates manufactured by Biotage (Charlotte, NC, United States). This newly developed kit identifies not only novel SCBs and associated metabolites, but also over 200 drugs and other NPSs that often confound such analytical tests. Optima-grade formic acid, acetonitrile, and methanol were purchased from Fisher Scientific (Fair Lawn, NJ, United States). Deionized water was purified to 18.2 MΩ⋅cm resistivity using the equivalent of a Millipore laboratory water purification system. All other chemicals and supplies were provided by Cerilliant (Round Rock, TX, United States), Cayman Chemical Company (Ann Arbor, Michigan, United States), Lipomed (Cambridge, MA), Biotage (Charlotte, NC, United States) or HemoStat Laboratories (Dixon, CA, United States). Blank defibrinated sheep blood or blank human blood void of drug contamination was used for all studies.
Supported liquid extraction (SLE) procedures were optimized for 96-wellplate processing on a PerkinElmer Zephyr G3 SPE Workstation (Waltham, MA, United States). Sample extracts were analyzed using an Agilent 1260 quaternary liquid chromatography system (Santa Clara, CA, United States) coupled to an Agilent 6420 tandem mass spectrometer (LC-MS/MS). Instrument control and data acquisition relied on MassHunter LC/MS Data Acquisition (VER B.08.00). Data analysis was performed using MassHunter Quantitative Analysis (VER B.07.01 SP2).
Use of this material was approved by the Institutional Review Board of the University of Arkansas for Medical Sciences (Little Rock, AR, United States) (IRB #217584).
All blood calibration standards, QC material, and unknown samples were processed identically by mixing 0.25 ml of blank blood or unknown specimen in appropriate wells at 900 rpm for 15 min, pretreating with 0.25 mL of 0.5 M ammonium hydroxide, and then mixing for another 15 min at 900 rpm. Samples were then loaded, under gentle vacuum or positive pressure, onto a 400 mg ISOLUTE® SLE+ 96-wellplate. Samples were allowed to equilibrate for 5 min before extracting under gravity with two fractions of 900 μL of ethyl acetate. All sample extracts were evaporated to dryness under a gentle flow of nitrogen and reconstituted in 100% methanol (100 μl).
Analytical procedures used 5 μl injections on a 2.6 μm Phenomenex Kinetex Phenyl Hexyl (50 × 4.6 mm) LC column heated to 35°C. Analytes were resolved at 0.5 mL/min using mobile phase A (10 mM ammonium formate in ultrapure 18.2 MΩ⋅cm water) and mobile phase B (0.1% formic acid in methanol). Analytes are resolved using a gradient starting at 95% aqueous (Mobile Phase A) and ramping to 0% aqueous over 4 min, and holding constant for 1 min. The gradient returned to initial conditions over 0.1 min and equilibrated for an additional 1.9 min. The total run time including column equilibration period between injections was 7.0 min. Specific mass spectrometer and analyte parameters are provided in Supplementary Tables S2, S3.

hCB1Rs [2] = target: T1, hCB1Rs (Homo sapiens, UniProt P21554); test: biochemical; format: binding; conditions: for Ki: [^3H]CP-55,940 binding, CHO-hCB1 membranes
T1 construct: host or cells: CHO-K1 (CHO-hCB1)

hCB1Rs [3] = target: T1, hCB1Rs; test: biochemical; conditions: CHO-hCB1 membranes; for Emax: read-out: EMAX, [^35S]GTPγS binding (maximal G-protein activation)
hCB1Rs [4] = target: T1, hCB1Rs; test: cell-based; format: cell-based; conditions: intact CHO-hCB1 cells, 10 μM forskolin, 15 min
[5] = test system: human liver microsomes (HLMs); test: Glucuronidation of AB-PINACA and JWH-018 metabolites in HLMs; format: in vitro ADME; conditions: 90 min; for Glucuronide formation (UPLC peak): 50 μM substrate, HLMs with UDPGA, 37°C
Procedure: A typical incubation mixture (30 μl of total volume) contained 100 mM Tris-HCl (pH 7.4), 5 mM MgCl2, 3 mM UDPGA, 80 μg/ml alamethicin, 50 μg HLMs, 5 mM saccharolactone, and 50 μM 4OH- or 5OH-AB-PINACA. […] After incubation at 37°C for 90 min, reactions were terminated by the addition of 30 μl cold ethanol. Following removal of the protein by centrifugation at 12,000 × g for 10 min, a 5-μl portion of the sample was subjected to UPLC. All incubations were performed in triplicate.
Parent compounds and glucuronidated metabolites were identified by the ACQUITY UPLC System with a UV detector (Milford, MA, United States). […] The column was re-equilibrated at initial conditions for 2.5 min between runs. The elution was monitored at 300 nm. The retention times of 4OH-AB-PINACA, 5OH-AB-PINACA, 4OH-AB-PINACA glucuronide, and JWH-018-M2 were 3.989, 3.994, 3.646, and 5.391 min.
FIGURE 4 Glucuronidation of 4OH- and 5OH-AB-PINACA in human liver microsomes (HLMs). 4OH-AB-PINACA (A) and 5OH-AB-PINACA (B) were incubated for 90 min with HLMs in the presence or absence of UDPGA. The terminated reaction mixtures were subjected to the UPLC analysis and the eluent was monitor with a UV detector at 300 nm and chromatograms presented. (C) The peak area of the glucuronide was estimated from the triplicate determinations. The data are presented as mean value ± SD. ND, not detected. (D) Comparison of glucuronidation of JWH-018-M2 and 4OH-AB-PINACA with HLMs. JWH-018-M2 and 4OH-AB-PINACA (5 μM) were incubated for 90 min with HLMs in the presence or absence of UDPGA. The terminated reaction mixtures were subjected to the UPLC analysis and the eluent was monitor with a UV detector at 300 nm. The remaining amount of the substrates was quantified by using standard curves of JWH-018-M2 and 4OH-AB-PINACA. The data was shown as mean value ± SD. ^∗P < 0.001. TEXT PRINTED IN THE PICTURE: (C) 5OH-AB-PINACA: Peak area (μV*sec): ND

CD1 mice = test: Cannabinoid-elicited hypothermia (rectal temperature); format: in vivo; conditions: for Lowest rectal temperature, hypothermic effect vs vehicle / Lowest rectal temperature, drug alone vs rimonabant pretreatment: P < 0.05; for Lowest rectal temperature, drug alone vs rimonabant pretreatment: rimonabant 10.0 mg/kg 60 min before
Procedure: For in vivo studies, rimonabant was synthesized in the laboratory of Dr. Thomas E. Prisinzano at the University of Kansas School of Pharmacy (Lawrence, KS, United States), and provided to us as a generous gift. AB-PINACA, and its 4OH metabolite were obtained from Cayman Chemical Company (Ann Arbor, MI, United States). All cannabinoids were dissolved in a vehicle consisting of ethanol, emulphor and saline at a ratio of 1:1:18. Injections were administered via the intraperitoneal (IP) route at a constant volume of […]. Rimonabant was administered at a dose of 10 mg/kg, 60 min before injection of AB-PINACA or its 4OH metabolite.
Adult male CD1 mice (Charles River Laboratory, Wilmington, MA, United States) were housed three subjects per cage (15.2 cm × 25.4 cm × 12.7 cm) in a temperature-controlled room in a vivarium accredited by the Association for Assessment and Accreditation of Laboratory Animal Care, and given ad libitum food (Laboratory Rodent Diet no. 5001; PMI Feeds, St. Louis, MO, United States) and water. The vivarium was maintained at 22°C ± 2°C and 45–50% humidity, with lights set to a 12-h light/dark cycle (lights on at 6:00 AM, CST). […] All procedures were carried out in accordance with the Guide for Care and Use of Laboratory Animals as adopted and promulgated by the National Institutes of Health (NIH). The experimental protocol has been approved by the Institutional Animal Care and Use Committee (IACUC) at the University of Arkansas for Medical Sciences (UAMS).
Mice were habituated to handling and weighing prior to initiation of experimental procedures. A digital thermometer (model BAT-12, PhysiTemp, Clifton, NJ, United States) equipped with a Ret-3 mouse probe (model 50314, Stoelting Co., Dale, IL, United States) was lubricated and inserted approximately 2 cm into the rectum. Stable temperatures were obtained within ∼6 s. Rectal temperature data were sampled immediately before injection, and at 10, 30, 60, 120, 240, and 360 min after injection.
Curve-fitting was conducted utilizing GraphPad Prism® v6.0b (GraphPad Software, Inc.; San Diego, CA, United States). Non-linear regression for one-site competition was used to determine the IC50 for competition receptor binding. The Cheng-Prusoff equation ([Cheng and Prusoff, 1973]) was employed to convert the experimental IC50 values obtained from competition receptor binding experiments to Ki values (a quantitative measure of receptor affinity). Curve fitting of concentration-effect curves via non-linear regression was also employed to determine the […] or IC50 (measures of potency) and Emax or Imax (measures of efficacy) for the [^35S]GTPγS and adenylyl cyclase experiments, respectively. All dissociation constants and measurements of potency were converted to pKi, pEC50, or pIC50 values by taking the negative log of each value so that parametric tests could be used for statistical comparisons. A one-way ANOVA, followed by Tukey’s Multiple Comparison post hoc test, was used to determine statistical significance (P < 0.05). For animal studies, temperature data are shown as mean values (±SEM) for groups of subjects at each drug dose and time point. For statistical analyses, only the highest dose of AB-PINACA or its 4OH- metabolite (with and without rimonabant pretreatment) were considered. The lowest temperatures recorded for each subject within each group (regardless of when after drug administration it occurred) were compared to vehicle data using a one-way ANOVA and Tukey’s HSD post hoc test. Significance was judged at P < 0.05.

[6] = Ki, 0.2 nM [^3H]CP-55,940, Cheng-Prusoff
[7] = pKi, 0.2 nM [^3H]CP-55,940, mean ± SEM
[8] = mean ± SEM, read-out: pEC50, [^35S]GTPγS binding (converted)
[9] = read-out: EC50, [^35S]GTPγS binding
[10] = read-out: IC50, cAMP accumulation (adenylyl cyclase inhibition)
[11] = read-out: pIC50, cAMP accumulation (converted)

T1 sequence (P21554 whole entry): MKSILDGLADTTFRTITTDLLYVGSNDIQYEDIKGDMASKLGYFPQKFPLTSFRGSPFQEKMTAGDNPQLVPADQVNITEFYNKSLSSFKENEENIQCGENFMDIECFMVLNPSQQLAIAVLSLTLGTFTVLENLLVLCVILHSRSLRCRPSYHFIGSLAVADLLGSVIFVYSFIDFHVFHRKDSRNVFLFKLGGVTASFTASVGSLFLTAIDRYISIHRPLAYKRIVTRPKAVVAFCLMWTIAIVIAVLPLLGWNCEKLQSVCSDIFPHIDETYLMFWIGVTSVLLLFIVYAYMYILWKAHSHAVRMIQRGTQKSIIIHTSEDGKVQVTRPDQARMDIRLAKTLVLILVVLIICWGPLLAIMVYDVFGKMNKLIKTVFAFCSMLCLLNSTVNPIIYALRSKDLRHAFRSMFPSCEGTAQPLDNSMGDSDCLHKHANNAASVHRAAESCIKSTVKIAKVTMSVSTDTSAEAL

Structure (SMILES): CC(C)(C)[C@H](NC(=O)c1nn(CC2CCCCC2)c2ccccc12)C(N)=O
- Concentration in serum [1]: 11.3 ng/mL

Structure (SMILES): CC(O)CCCn1nc(C(=O)NC(C(N)=O)C(C)C)c2ccccc21 (stereo not drawn) [4OH-AB-PINACA]
- hCB1R affinity relative to the parent compound AB-PINACA (fold less) (hCB1Rs [2]; 159 nM vs 4 nM): approximately 40 fold
- Ki (hCB1Rs [2]; [6]): 159 nM
- Ki (hCB1Rs [2]; [7]): 151 nM
- Emax (hCB1Rs [3]; mean ± SEM): 92.6 ± 13.4%
- EC50 (hCB1Rs [3]; [8]): 813 nM
- EC50 (hCB1Rs [3]; [9]): 952 nM
- IMAX, cAMP accumulation (maximal adenylyl cyclase inhibition) (hCB1Rs [4]): 87.0 ± 2.9^a %
- IC50 (hCB1Rs [4]; [10]): 141 nM
- IC50 (hCB1Rs [4]; [11]): 129 nM
- Remaining amount of substrate in the presence vs absence of UDPGA ([5]; 5 μM substrate, HLMs, Figure 4D): such disappearance of substrate is not observed
- Glucuronide formation (UPLC peak) [5]: unique peak is observed; also recorded: slightly glucuronidated
- Lowest rectal temperature, hypothermic effect vs vehicle (CD1 mice; 100.0 mg/kg i.p.): significantly different
- Lowest rectal temperature, drug alone vs rimonabant pretreatment (CD1 mice; 100.0 mg/kg i.p.): significantly different
- Dose required for a similar level of hypothermia relative to AB-PINACA (CD1 mice; 100 mg/kg vs 10 mg/kg): ~10 fold
- Effect on rectal temperature (CD1 mice; 30.0 and 100.0 mg/kg, i.p.): dose- and time-dependent hypothermic effects

Structure (SMILES): CC(C)C(NC(=O)c1nn(CCCCCO)c2ccccc12)C(N)=O (stereo not drawn) [5OH-AB-PINACA]
- Ki (hCB1Rs [2]; [6]): 452 nM
- Ki (hCB1Rs [2]; [7]): 447 nM
- Emax (hCB1Rs [3]; mean ± SEM): 100 ± 16.8%
- EC50 (hCB1Rs [3]; [8]): 2820 nM
- EC50 (hCB1Rs [3]; [9]): 2740 nM
- Glucuronide formation (UPLC peak) [5]: no such peak is observed; also recorded: glucuronidation is not involved in the clearance

Structure (SMILES): CC(C)[C@H](NC(=O)c1nn(Cc2ccc(F)cc2)c2ccccc12)C(N)=O [AB-FUBINACA]
- Concentration in urine [1]: 1.1 ng/mL

Structure (SMILES): CCCCCn1nc(C(=O)N[C@H](C(N)=O)C(C)C)c2ccccc21 [AB-PINACA, (S)-N1(1-amino-3-methyl-1-oxobutan-2-yl)-1-pentyl-1H-indazole-3-carbox-amide]
- Ki (hCB1Rs [2]; [6]): 4 nM
- Ki (hCB1Rs [2]; [7]): 1.78 nM
- Emax (hCB1Rs [3]; mean ± SEM): 71.9 ± 5.8%
- EC50 (hCB1Rs [3]; [8]): 8.71 nM
- EC50 (hCB1Rs [3]; [9]): 12.8 nM
- IMAX, cAMP accumulation (maximal adenylyl cyclase inhibition) (hCB1Rs [4]): 72.0 ± 2.1^b %
- IC50 (hCB1Rs [4]; [10]): 3.9 nM
- IC50 (hCB1Rs [4]; [11]): 2.24 nM
- Lowest rectal temperature, hypothermic effect vs vehicle (CD1 mice; 10.0 mg/kg i.p.): significantly different
- Lowest rectal temperature, drug alone vs rimonabant pretreatment (CD1 mice; 10.0 mg/kg i.p.): significantly different
- Effect on rectal temperature (CD1 mice; 3.0 and 10.0 mg/kg, i.p.): dose- and time-dependent hypothermic effects
- Effect on rectal temperature (CD1 mice; lowest tested dose (1.0 mg/kg), i.p.): prevents the typical injection-elicited increase in rectal temperature
- Concentration in serum [1]: 1.2 ng/mL
- Concentration in urine [1]: 0.9 ng/mL

Structure (SMILES): Cc1c(C(=O)NN2CCCCC2)nn(-c2ccc(Cl)cc2Cl)c1-c1ccc(Cl)cc1 [Rimonabant, reference compound]
- Effect on rectal temperature (CD1 mice; 10 mg/kg, alone): does not alter rectal temperature

Structure (SMILES): C=C(C)C(C)(C)CC(=O)c1cn(CCCCC(=O)O)c2ccccc12 [UR-144-pentanoic acid degradant]
- Concentration in serum [1]: 5.4 ng/mL
